Assay results: patent US20170275344A1, “POLYPEPTIDES AND USES THEREOF AS A DRUG FOR TREATMENT OF AUTOIMMUNE DISORDERS” (Compugen Ltd., priority 2014, published 2017)
“Also recorded” adds a separate entry of the source.

Tests used:
psoriasis patients = conditions: cited from earlier work
male DBA-1 mice = experiment: Established collagen-induced arthritis (CIA), therapeutic regimen; format: in vivo, mouse
Protocol: Bovine type II collagen (CII) (RUNMC in house production, batch 03-04-08) at a concentration of 2 mg/ml in acetic acid 0.05M was emulsified in equal volumes of Freund's complete adjuvant (2 mg/ml of Mycobacterium tuberculosis strain H37Ra; Difco, Detroit, Mich.).
On day 0, 10-12 week old male DBA-1 mice (Janvier Elevage, France) (n=95) were immunized i.d. at the base of the tail with 100 μg of bovine CII. On day 21, mice received an intraperitoneal booster injection of 50 μg of CII dissolved in phosphate buffered saline (PBS), and the onset of arthritis occurred a few days after this booster.
Joint inflammation in each paw was scored visually, using a scale of 0-2 per paw with a maximal score of 8 per animal: 0=non inflamed, 1=mild inflammation, 1.5=marked inflammation, and 2=severe inflammation. Scoring was performed three times a week.
Treatment was started in established CIA early after onset of disease (i.e. therapeutic regimen), when the macroscopic scores per animal were between 0.25 and 1.25 (on a scale of 0-8). The i.p. injections were given three times per week for two weeks, after which the study was terminated and mice were terminally bled to collect serum. Thereafter, the knee and ankle joints were collected and stored in formalin. Histology was scored for inflammation and destruction on an arbitrary scale of 0-3, for five different parameters: • Joint inflammation • Cartilage proteoglycan (PG) depletion • Chondrocyte death • Cartilage erosion • Bone erosion
1. Negative control: PBS 2. Negative control mIgG2A (Bioxcell, BE0085): 10 mg/kg 3. C1ORF32 ECD-Fc (SEQ ID NO:42): 10 mg/kg 4. C1ORF32 ECD-Fc (SEQ ID NO:42): 5 mg/kg 5. Positive control: Enbrel (Wyeth, F01421) 5 mg/kg
Joints were fixed for at least 4 days in 4% formaldehyde, decalcified in 5% formic acid, and subsequently dehydrated and embedded in paraffin. Standard frontal sections of 7 μm were mounted on SuperFrost slides (Menzel-Glaser, Braunschweig, Germany). Haematoxylin and eosin (H&E) staining was performed to study joint inflammation. The severity of inflammation in the joints was scored on a scale of 0-3 (0=no cells, 1=mild cellularity, 2=moderate cellularity, and 3=maximal cellularity). To study proteoglycan (PG) depletion from the cartilage matrix, sections were stained with safranin O (SO) followed by counterstaining with fast green. Depletion of PG was determined using an arbitrary scale of 0-3, ranging from normal, fully stained cartilage to destained cartilage, fully depleted of PGs. Chondrocyte death was scored on a scale of 0-3 ranging from no loss of chondrocyte nuclei to complete empty cartilage surface. The degree of cartilage surface erosion was scored on a scale of 0-3, ranging from no damage to complete loss of articular cartilage. Bone destruction was graded separately on a scale of 0-3, ranging from no damage to the complete loss of bone structure. Histopathological changes in the joint were scored on three semiserial sections of the joint spaced 70 μm apart. Scoring was performed in a blindfolded manner.
Statistical analysis: Disease course data was analyzed using one-way ANOVA with repeated measures, with a Bonferroni's post-test of selected pairs to determine statistical differences between C1ORF32 ECD-Fc (SEQ ID NO:42) and Enbrel treated mice, each as compared to Control Ig (IgG2a) treated group.

[1] = system: healthy human skin transplanted onto beige-SCID mice; experiment: Humanized psoriasis model: healthy human skin xenotransplants on beige-SCID mice injected with psoriatic patients' PBMCs; format: in vivo, mouse
Excerpt: In this model, psoriasis is induced in xenotransplants of healthy human skin transplanted onto beige severe combined immunodeficiency (SCID) mice followed by intradermal (i.d.) injection of IL-2 enriched Peripheral Blood Mononuclear Cells (PBMCs) isolated from blood of psoriasis patients (Nickoloff, 1995; Wrone-Smith, 1996 Gilhar et al., 2002, 2006, 2011). The activity of these compounds was compared to that of Enbrel, a TNF inhibitor which is an approved biological drug for treatment of psoriasis. As a control for model robustness, we used dexamethasone, a steroid with suppressive effects on inflammatory cytokines and chemokines such as TNF-alpha and interferon-gamma which cause severe psoriasis. All treatments were administered intradermally, except for dexamethasone which was given topically.
Study Protocol: A) Healthy human skin pieces with a width of 0.4 mm and surface area of 1.5×1.5 cm were provided from residual skin of routine plastic surgery procedures from the Plastic Surgery Department of the Rambam Medical Center, Israel. In addition, 20 mL blood samples were taken from psoriatic patients. B) Seventy (70) beige-severe combined immunodeficient mice (SCID) (weight˜20-25 g) were included in this study. Normal healthy human donor skin was transplanted onto the beige-SCID mice as previously described (Nickoloff et al., 1995; Wrone-Smith, 1996; Gilhar et al., 2002, 2006, 2011; Kalish et al., 2009) and the mice were divided into 7 groups. C) Peripheral Blood Mononuclear Cells (PBMCs) isolated from psoriatic patients' blood were cultured in the presence of IL-2 [Prospec, 100 U/mL of RPMI 1640 media, 10% human AB serum (Sigma, St. Louis, Mo.), 1% glutamine, 1% antibiotics (media components; Biological Industries, Kibbutz Beit Haemeck, Israel)] for 14 days, as previously described (Gilhar et al, 2002). D) Four weeks following engraftment, each mouse was injected intra-dermally (i.d.) into the grafted skin lesion, with 1×10^7 activated allogeneic enriched PBMCs from psoriatic patients (FIG. 20). Cells from different psoriasis patients were equally distributed between treatment groups so that each patient is represented in each treatment group. E) On the day of PBMCs injection into the skin grafts, mice were divided randomly into treatment groups (n=9-10 mice per group) and administration of all drugs started (FIG. 20). All tested compounds including the vehicle were given intradermally (intralesional), three times a week, except for dexamethasone which was given topically for 14 consecutive days (Table 3).
F) Twenty eight days after starting the injections and treatment, skin was harvested (FIG. 20). Grafts were analyzed for the following psoriatic parameters by histology: epidermal thickening (acanthosis), suprapapillary epidermal thinning (papillomatosis), hyperkeratosis, parakeratosis, orthokeratosis, agranulosis-hypogranulosis, appearance of neutrophils in the upper spinous layer or in the corneal cell layer—Munro microabscess, regular elongation of rete ridges, angiogenesis, edema and dilated tortuous blood vessels in the dermal papilla and mononuclear cell infiltrate in the papillary dermis. Epidermal thickness was measured as detailed below, and HLA-DR, ICAM-1, Ki-67 and immune infiltrates (anti-CD3 stain) were evaluated by immunohistochemistry (IHC).
The entire skin graft was excised and placed in 10% formal saline overnight. Then, the specimens were place in 70% ethanol and were embedded according to the standard H&E protocol. Histological assessment of the skin grafts was performed by light microscopy and evaluated by two blinded observers [the second observer evaluated random slides (about 25% of all slides) to compare the data obtained by the first observer. […] Epidermal thickness was determined with an ocular micrometer at a minimum of 50 points along the epidermis selected to represent points of maximal and minimal thickness.
Representative grafts were allocated for IHC analysis. […]

[2] = 28 days after start of treatment

## Enbrel
Psoriasis patients; at week 12
  patients achieving 75% improvement in the psoriasis area-and-severity index (PASI 75): Forty nine
Psoriasis patients; clinical trials
  patients achieving PASI 90: 22%
Male DBA-1 mice; 5 mg/kg, day 14
  bone erosions (histology): significant reduction of bone erosions
  other histological parameters of inflammation and cartilage damage: only a trend for protection
Male DBA-1 mice; positive control, 5 mg/kg i.p. 3x/wk for 2 wks
  arthritis (macroscopic) scores: not as potent in reducing the arthritis scores as expected
[1]; [2]
  Healthy Skin (number of grafts): 3/9
  Psoriasiform Skin (number of affected grafts, histological evaluation): 6/9
  Total No. of Healthy Grafts (%): 33%
[1]; IHC, vs vehicle treated group
  proliferation index (% Ki-67 positive cells) in the xenografted skin: trend of decrease in proliferation index
[1]; Source of graft (Patient)
  Epidermal thickness of graft: 683 μm
[1]; Source of graft (Patient) B
  Epidermal thickness of graft: 658 μm
[1]; Source of graft (Patient) C
  Epidermal thickness of graft: 770 μm
[1]; Source of graft (Patient) D
  Epidermal thickness of graft: 679 μm
[1]; Source of graft (Patient) E
  Epidermal thickness of graft: 678 μm
[1]; Source of graft (Patient) G1
  Epidermal thickness of graft: 830 μm
[1]; Source of graft (Patient) H
  Epidermal thickness of graft: 496 μm
[1]; Source of graft (Patient) K
  Epidermal thickness of graft: 296 μm
[1]; Source of graft (Patient) P
  Epidermal thickness of graft: 492 μm
[1]; mean of 9-10 mice, PBS mean 682
  Epidermal thickness of grafts, Mean: 620 μm
[1]; one-tailed t-Test
  epidermal thickness compared with the vehicle-treated group: no substantial effect on epidermal thickness; also recorded: no significant reduction in epidermal thickness
